These results are taken from patent US8232295B2, “Treating vascular events with statins by inhibiting PAR-1 and PAR-4” (Heartdrug Research, L.L.C., priority 2004, dated 2012).

The test system of test [1] is platelet PAR-1/PAR-4 receptors (cleaved epitope). Kind of test: Whole blood flow cytometry with WEDE15 monoclonal antibody (cleaved epitope) in statin-treated patients with coronary artery disease. In kind it is in vivo, human. To be noted: n = 10. The text has this:
(§1) The study was designed as a prospective, single blinded, placebo controlled trial of 6 major statins currently available in the US. The study was approved by local institutional review boards. Written informed consent was obtained from all patients, who were informed of the strict compliance rules, and compensated for outpatient visits, and blood draws.
(§2) Blood samples were obtained with a 19-gauge needle by direct venipuncture and drawn into two 7-ml vacutainer tubes at room temperature containing 3.8% trisodium citrate. The vacutainer tube was filled to capacity and gently inverted 3 to 5 times to ensure complete mixing of the anticoagulant. The first 4-5 ml of blood were used for lipid profile analysis, or discharged. All samples were labeled with coded number and analyzed by blinded technicians. Platelet studies were performed at baseline as well as at Week 4, and Week 6.
(§3) The blood-citrate mixture (50 μl) was diluted with 450 μl Tris buffered saline (TBS) (10 mmol/l Tris, 0.15 mol/l sodium chloride) and mixed by inverting an Eppendorf tube gently two times. The appropriate antibody was then added (5 μl) and incubated at 37° C. for 30 minutes, after incubation, 400 μl of 2% buffered paraformaldehyde was added for fixation. The samples were analyzed on the FACScan flow cytometer (Becton Dickinson, San Diego, Calif.) calibrated to measure fluorescent light scatter. All parameters were collected using four-decade logarithmic amplification. The data were collected in list mode files and then analyzed. The surface expression of platelet receptors was determined by flow cytometry using the following monoclonal antibodies: cleaved (WEDE15), and intact (SPAN12) platelet thrombin PAR-1/PAR-4 receptors (Beckman Coulter, Brea, Calif.), and they were expressed as log mean fluorescence intensity.
(§4) The significance of differences between treatments arms was calculated by c2 and Fisher's exact tests for discrete variables, and Wilcoxon rank-sum test for continuous variables. The significance of differences between individual flow cytometric histograms was calculated using the Smirnov-Kolgomorov test incorporated in the CELLQuest' (San Diego, Calif.) software. Statistical analyses were performed using SPSS/E11.5 (SPSS, Inc., Chicago, Ill.). To control for any baseline differences analysis of variance was used. All p values are 2 sided.
A general note: In flow cytometry, cells or beads pass a laser one at a time.

Test [2] relates to platelet PAR-1/PAR-4 receptors (intact epitope). Kind of test: Whole blood flow cytometry with SPAN12 monoclonal antibody (nonactive, intact epitope) in statin-treated patients with coronary artery disease. In kind it is in vivo, human. The conditions noted are these: n = 10.
Excerpt: as §1, §2, §3, §4

Where [3] appears, read: Baseline (pretreatment), patients with coronary artery disease, mean ± SD.
The mark [4] stands for this setting: Week 4 of statin therapy, dose at physician discretion (Table 2), *p < 0.05.
The mark [5] stands for this setting: Week 6 of statin therapy, dose at physician discretion (Table 2), *p < 0.05.

With `CC(C)c1c(C(=O)Nc2ccccc2)c(-c2ccccc2)c(-c2ccc(F)cc2)n1CC[C@@H](O)C[C@@H](O)CC(=O)O` [Atorvastatin, atorvastatin], the “WEDE15-MoAbs (a cleaved epitope of PAR-1/PAR-4 receptors) receptor expression” value (from here on “WEDE15-MoAbs”) is 27.5 ± 4.9 Log mean fluorescence intensity in test [1] (setting [3]), 16.1 ± 5.8* Log mean fluorescence intensity in test [1] (setting [4]) and 18.0 ± 7.4* Log mean fluorescence intensity in test [1] (setting [5]). Also, the “SPAN-12-MoAbs (nonactive, intact epitope of PAR-1/PAR-4 receptors) receptor expression” value (“SPAN-12-MoAbs” for short) is 46.1 ± 8.3 Log mean fluorescence intensity in test [2] (setting [3]), 39.5 ± 5.7 Log mean fluorescence intensity in test [2] (setting [4]) and 30.8 ± 4.0* Log mean fluorescence intensity in test [2] (setting [5]).

As for `CC[C@H](C)C(=O)O[C@H]1C[C@H](O)C=C2C=C[C@H](C)[C@H](CC[C@@H](O)C[C@@H](O)CC(=O)O)[C@H]21` [Pravastatin, pravastatin], the “WEDE15-MoAbs” value in test [1] (setting [3]) is reported as 28.2 ± 4.4 Log mean fluorescence intensity; in test [1] (setting [4]), 16.9 ± 4.8* Log mean fluorescence intensity; in test [1] (setting [5]), 20.1 ± 6.6* Log mean fluorescence intensity. Besides, the “SPAN-12-MoAbs” value in test [2] (setting [3]) is listed as 50.3 ± 9.1 Log mean fluorescence intensity; in test [2] (setting [4]), 29.0 ± 6.7* Log mean fluorescence intensity; in test [2] (setting [5]), 32.6 ± 8.4* Log mean fluorescence intensity.

As to `CC(C)n1c(/C=C/C(O)CC(O)CC(=O)O)c(-c2ccc(F)cc2)c2ccccc21` (stereo not drawn) [Fluvastatin, fluvastatin], the “WEDE15-MoAbs” value is 27.1 ± 5.9 Log mean fluorescence intensity in test [1] (setting [3]), 18.0 ± 5.8* Log mean fluorescence intensity in test [1] (setting [4]) and 20.7 ± 4.1* Log mean fluorescence intensity in test [1] (setting [5]). The “SPAN-12-MoAbs” value in test [2] (setting [3]) was 42.8 ± 8.2 Log mean fluorescence intensity; in test [2] (setting [4]) it was 37.1 ± 7.3 Log mean fluorescence intensity; in test [2] (setting [5]), 29.9 ± 6.4* Log mean fluorescence intensity.

In the case of `CC(C)c1nc(N(C)S(C)(=O)=O)nc(-c2ccc(F)cc2)c1/C=C/[C@@H](O)C[C@@H](O)CC(=O)O` [Rosuvastatin, rosuvastatin], the “WEDE15-MoAbs” value in test [1] (setting [3]) was 30.1 ± 7.2 Log mean fluorescence intensity; in test [1] (setting [4]), 17.4 ± 5.5* Log mean fluorescence intensity; in test [1] (setting [5]), 22.6 ± 7.2* Log mean fluorescence intensity. Moreover, the “SPAN-12-MoAbs” value in test [2] (setting [3]) is on record as 42.2 ± 9.4 Log mean fluorescence intensity; in test [2] (setting [4]), 33.6 ± 5.9 Log mean fluorescence intensity; in test [2] (setting [5]), 25.1 ± 7.0* Log mean fluorescence intensity.

For `CCC(C)(C)C(=O)O[C@H]1C[C@@H](C)C=C2C=C[C@H](C)[C@H](CC[C@@H]3C[C@@H](O)CC(=O)O3)[C@H]21` [Simvastatin, simvastatin], the “WEDE15-MoAbs” value in test [1] (setting [3]) is reported as 29.0 ± 7.3 Log mean fluorescence intensity; in test [1] (setting [4]), 16.6 ± 5.5* Log mean fluorescence intensity; in test [1] (setting [5]), 23.4 ± 8.1 Log mean fluorescence intensity. The figures for the “SPAN-12-MoAbs” value in test [2] (setting [3]), in test [2] (setting [4]) and in test [2] (setting [5]) were 45.4 ± 7.0 Log mean fluorescence intensity, 26.5 ± 5.8* Log mean fluorescence intensity and 24.9 ± 6.2* Log mean fluorescence intensity, respectively.

As to `CC[C@H](C)C(=O)O[C@H]1C[C@@H](C)C=C2C=C[C@H](C)[C@H](CC[C@@H]3C[C@@H](O)CC(=O)O3)[C@H]21` [Lovastatin, lovastatin], the “WEDE15-MoAbs” value in test [1] (setting [3]) is 26.8 ± 4.9 Log mean fluorescence intensity; in test [1] (setting [4]), 18.4 ± 5.0* Log mean fluorescence intensity; in test [1] (setting [5]), 23.0 ± 6.3 Log mean fluorescence intensity. Moreover, the “SPAN-12-MoAbs” value is on record as 40.6 ± 6.9 Log mean fluorescence intensity in test [2] (setting [3]), 40.0 ± 8.1 Log mean fluorescence intensity in test [2] (setting [4]) and 31.1 ± 5.5* Log mean fluorescence intensity in test [2] (setting [5]).
